One assay concerns C57BL/6J mice. The assay can be described thus: Estimation of urinary glucose in C57BL/6J mice. It counts as in vivo, mouse. Conditions: urine collected over 24 h. The protocol:
Estimation of Urinary Glucose in C57BL/6J Mice
C57BL/6J mice were fasted 4 h before drug treatment. Fasted mice were weighed and randomized into different groups based on their body weight (n=6). At time T0 test compounds and standard compounds suspended in 0.25% CMC or PEG 400 formulation, were administered to respective groups and kept in metabolic cages (6 mice/cage) after dosing. Animals were fed after drug administration and urine was collected over a period of 24 h. Urinary volume was measured and urinary glucose was estimated using Merckotest Glucose Reagent (Merck Specialities Pvt. Ltd., India).

The target of the next assay is T1, human SGLT-1 (Homo sapiens, UniProt P13866).
T1 construct: Full-length human SGLT-1 cDNA in the pCMV-XL-Neo expression vector was obtained from Origene Corporation
T1 sequence (P13866 1-664): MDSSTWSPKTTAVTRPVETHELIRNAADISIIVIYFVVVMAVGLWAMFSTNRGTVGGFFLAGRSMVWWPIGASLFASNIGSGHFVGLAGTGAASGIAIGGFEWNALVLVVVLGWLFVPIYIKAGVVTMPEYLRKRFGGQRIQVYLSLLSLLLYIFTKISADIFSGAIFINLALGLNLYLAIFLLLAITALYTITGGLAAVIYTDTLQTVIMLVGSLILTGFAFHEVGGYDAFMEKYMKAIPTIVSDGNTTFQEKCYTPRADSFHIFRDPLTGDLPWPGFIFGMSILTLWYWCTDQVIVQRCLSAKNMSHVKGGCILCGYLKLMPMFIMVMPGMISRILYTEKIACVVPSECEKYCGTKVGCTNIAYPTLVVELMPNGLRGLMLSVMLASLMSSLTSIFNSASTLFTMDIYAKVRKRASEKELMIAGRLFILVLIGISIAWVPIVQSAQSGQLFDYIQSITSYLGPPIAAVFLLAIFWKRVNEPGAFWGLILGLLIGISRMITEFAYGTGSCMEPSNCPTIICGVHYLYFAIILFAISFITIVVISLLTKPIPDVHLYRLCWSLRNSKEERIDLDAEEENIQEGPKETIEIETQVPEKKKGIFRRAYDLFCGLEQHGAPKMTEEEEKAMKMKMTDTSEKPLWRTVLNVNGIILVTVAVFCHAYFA
The assay can be described thus: Methyl-α-D-[U-14C]Glucopyranoside uptake assay for SGLT-1 in CHO-K1 cells expressing hSGLT-1. It is filed as cell-based. To be noted: N.E. = Not Effective. The protocol:
Preparation of Human SGLT-1 Expressing Cells
Full-length human SGLT-1 cDNA in the pCMV-XL-Neo expression vector was obtained from Origene Corporation and propagated in Escherichia coli strain DH5α using Luria-Bertani (LB) medium containing ampicillin. […] Stably transfected cells were selected using G418 antibiotic selection pressure.
Methyl-α-D-[U-^14C]Glucopyranoside Uptake Assay for SGLT-1
(§1) Cells expressing hSGLT-1 were seeded on 96-well tissue culture plates (Greiner, Inc.) in RPMI containing 10% FBS and 800 μg/ml G418 (0.8×10^5 cells per well in 200 μL medium) and incubated at 37° C. under 5% carbon dioxide for 24 h prior to the assay. Cells were washed twice with 200 μL of either sodium buffer (140 mM NaCl, 4.7 mM KCl, 2.2 mM CaCl2, 1.2 mM MgCl2, 10 mM Tris/Hepes, pH 7.4) or sodium-free buffer (137 mM N-methyl-glucamine, 4.7 mM KCl, 2.2 mM CaCl2, 1.2 mM MgCl2, 10 mM Tris/Hepes, pH 7.4). Reaction mixture containing test compounds diluted in assay buffer, 1 mM unlabeled Methyl-α-D-glucopyranoside and 1 μCi/well methyl-α-D-[U-^14C]glucopyranoside (American Radiochemicals) was added per well of a 96-well plate and incubated at 37° C. for 1 h. Cells were washed thrice with 200 μL of wash buffer (140 mM NaCl, 4.7 mM KCl, 2.2 mM CaCl2, 1.2 mM MgCl2, 10 mM Tris/Hepes, pH 7.4 containing 500 μM phlorizin) and lysed using 50 μL of 0.25N NaOH. Methyl-α-D-[U-^14C]glucopyranoside uptake was quantitated using a Top count scintillation counter (PerkinElmer, Inc.). All the test compounds were assayed in triplicates.

A further assay concerns the target T2, mouse SGLT-2 (Mus musculus, UniProt Q923I7).
T2 construct: Full-length mouse SGLT-2 cDNA was amplified from C57BL/6J mouse kidneys and introduced in the pcDNA3.1(+) expression vector; expressed in transfected cells
T2 sequence (Q923I7 1-670): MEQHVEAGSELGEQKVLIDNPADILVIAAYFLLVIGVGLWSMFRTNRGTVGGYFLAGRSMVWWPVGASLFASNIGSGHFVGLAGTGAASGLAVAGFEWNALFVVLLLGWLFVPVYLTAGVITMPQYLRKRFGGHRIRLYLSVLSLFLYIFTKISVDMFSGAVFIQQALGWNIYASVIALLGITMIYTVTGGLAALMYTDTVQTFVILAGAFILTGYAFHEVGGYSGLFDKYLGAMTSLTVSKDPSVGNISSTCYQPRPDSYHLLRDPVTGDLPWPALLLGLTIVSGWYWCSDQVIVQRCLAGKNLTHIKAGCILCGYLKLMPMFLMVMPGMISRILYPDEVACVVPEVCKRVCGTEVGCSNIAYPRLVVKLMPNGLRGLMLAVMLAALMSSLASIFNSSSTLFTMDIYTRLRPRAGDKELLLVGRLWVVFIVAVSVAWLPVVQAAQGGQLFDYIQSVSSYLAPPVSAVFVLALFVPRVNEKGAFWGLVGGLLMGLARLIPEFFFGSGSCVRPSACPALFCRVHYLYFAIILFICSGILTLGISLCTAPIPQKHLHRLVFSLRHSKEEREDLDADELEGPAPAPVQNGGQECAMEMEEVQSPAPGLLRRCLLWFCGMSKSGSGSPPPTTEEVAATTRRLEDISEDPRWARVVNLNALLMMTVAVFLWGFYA
In words: Methyl-α-D-[U-14C]Glucopyranoside uptake assay for SGLT-2 in CHO-K1 cells expressing mSGLT-2. It counts as cell-based. Conditions: N.E. = Not Effective. The protocol:
Preparation of Mouse SGLT-2 Expressing Cells
Full-length mouse SGLT-2 cDNA was amplified from C57BL/6J mouse kidneys and introduced in the pcDNA3.1(+) expression vector (Invitrogen, Inc.) and propagated in Escherichia coli strain DH5α using Luria-Bertani (LB) medium containing ampicillin. […] Stably transfected cells were selected using G418 antibiotic selection pressure.
Methyl-α-D-[U-^14C]Glucopyranoside Uptake Assay for SGLT-2
as §1, with “Cells expressing mSGLT-2 were seeded” for “Cells expressing hSGLT-1 were seeded”, “FBS and 400 μg/mL G418 (0.8×10^5” for “FBS and 800 μg/ml G418 (0.8×10^5”, “test compounds at different concentrations diluted in” for “test compounds diluted in”, “assay buffer, 0.1 mM unlabeled” for “assay buffer, 1 mM unlabeled”, “1 μCi/well methyl-α-D[U-^14C]glucopyranoside (American Radiochemicals)” for “1 μCi/well methyl-α-D-[U-^14C]glucopyranoside (American Radiochemicals)”, “0.25N NaOH. Methyl-α-D[U-^14C]glucopyranoside uptake was” for “0.25N NaOH. Methyl-α-D-[U-^14C]glucopyranoside uptake was”

The subject of another assay is Rats. The assay can be described thus: Estimation of urinary glucose in rat. It is filed as in vivo. To be noted: urine collected over 24 hrs. The protocol: Estimation of Urinary Glucose in Rat
Rats were fasted overnight (14 hrs) before drug treatment. Fasted rats were weighed and randomized into different groups based on their body weight (n=4). At time To test compounds and standard compound suspended in 0.25% C.M.C. or PEG 400 formulation were administered to respective groups and kept the animals in metabolic cages (1 rat/cage) after dosing. Animals were fed after drug administration and urine was collected over a period of 24 hrs. Urine volume was measured and urinary glucose was estimated using Merckotest Glucose Reagent (Merck Specialities Pvt. Ltd., India).

Regarding “1-(4-(2-chloro-5-((2S,3R,4R,5S,6S)-3,4,5-trihydroxy-6-methoxy tetrahydro-2H-pyran-2-yl)benzyl)phenyl)ethanone O-ethyl oxime [Compound 5]”, in the assay on C57BL/6J mice, the “UGE in mice (in mg/g of feed consumed) at 3 mpk” value (“UGE in mice” below) is given as 81.7 mg/g of feed consumed. The “% inhibition of Methyl-α-D-[U-14C] Glucopyranoside uptake (CHO-K1 cells) mediated by SGLT-1” value (“% inhibition … by SGLT-1” for short) at human SGLT-1 (100 nM compound) is “N.E”; on human SGLT-1 (1 μM compound) it was “N.E”; on human SGLT-1 (10 μM compound), 49.74%. In addition, the “% inhibition of Methyl-α-D-[U-14C] Glucopyranoside uptake (CHO-K1 cells) mediated by SGLT-2” value (shortened to “% inhibition … by SGLT-2”) is reported as 23.91% on mouse SGLT-2 (0.1 nM compound), 45.81% on mouse SGLT-2 (1 nM compound), 50.06% on mouse SGLT-2 (10 nM compound) and 91.98% at mouse SGLT-2 (100 nM compound).

For “1-(4-(2-chloro-5-((2S,3R,4R,5S,6R)-3,4,5-trihydroxy-6-(hydroxymethyl)tetrahydro-2H-pyran-2-yl)benzyl)phenyl)ethanone O-methyl oxime [Compound 2]”, the “UGE in mice” value in the assay on C57BL/6J mice was 88.9 mg/g of feed consumed. Further, the “UGE in rat (in mg/g of feed consumed) at 3 mpk” value in the assay on Rats was 68.6 mg/g of feed consumed. Besides, the “% inhibition … by SGLT-1” value was “N.E” on human SGLT-1 (100 nM compound), 33.10% at human SGLT-1 (1 μM compound) and 78.87% at human SGLT-1 (10 μM compound). The “% inhibition … by SGLT-2” value at mouse SGLT-2 (0.1 nM compound) is recorded as 16.73%; at mouse SGLT-2 (1 nM compound) it was 26.19%; on mouse SGLT-2 (10 nM compound), 73.13%; on mouse SGLT-2 (100 nM compound) it was 92.85%.

Consider “1-(4-(2-chloro-5-((1S,2S,3S,4R,5S)-2,3,4-trihydroxy-1-(hydroxymethyl)-6,8-dioxabicyclo[3.2.1]octan-5-yl)benzyl)phenyl)ethanone O-ethyl oxime [Compound 8]”, for which the “UGE in mice” value in the assay with C57BL/6J mice is listed as 60.6 mg/g of feed consumed. In addition, the “% inhibition … by SGLT-1” value on human SGLT-1 (100 nM compound) stood at 20.63%; on human SGLT-1 (1 μM compound) it was 55.66%; on human SGLT-1 (10 μM compound), 88.57%. The “% inhibition … by SGLT-2” value is on record as “N.E” on mouse SGLT-2 (0.1 nM compound), 25.35% on mouse SGLT-2 (1 nM compound), 72.44% on mouse SGLT-2 (10 nM compound) and 90.93% at mouse SGLT-2 (100 nM compound).

On to “1-(4-(2-chloro-5-((2S,3R,4R,5S,6R)-3,4,5-trihydroxy-6-(hydroxymethyl)tetrahydro-2H-pyran-2-yl)benzyl)phenyl)ethanone O-ethyl oxime [Compound 6]”, for which the “UGE in mice” value with C57BL/6J mice was 78.1 mg/g of feed consumed. Besides, the “% inhibition … by SGLT-1” value at human SGLT-1 (100 nM compound) is “N.E”; on human SGLT-1 (1 μM compound) it was 22.68%; at human SGLT-1 (10 μM compound), 60.02%. Also, the “% inhibition … by SGLT-2” value at mouse SGLT-2 (0.1 nM compound) is recorded as 44.05%; on mouse SGLT-2 (1 nM compound), 45.09%; on mouse SGLT-2 (10 nM compound), 62.06%; on mouse SGLT-2 (100 nM compound), 89.78%.

Consider “1-(4-(2-chloro-5-((2S,3R,4R,5S,6R)-3,4,5-trihydroxy-6-(hydroxymethyl)tetrahydro-2H-pyran-2-yl)benzyl)phenyl)-propan-1-one O-methyl oxime [Compound 7]”, for which, in the assay on C57BL/6J mice, the “UGE in mice” value is given as 78.4 mg/g of feed consumed. For the same substance, the “% inhibition … by SGLT-1” value is “N.E” on human SGLT-1 (100 nM compound), “N.E” at human SGLT-1 (1 μM compound) and 56.97% at human SGLT-1 (10 μM compound). Further, the “% inhibition … by SGLT-2” value at mouse SGLT-2 (0.1 nM compound) is recorded as 44.36%; on mouse SGLT-2 (1 nM compound), 48.64%; on mouse SGLT-2 (10 nM compound), 42.26%; at mouse SGLT-2 (100 nM compound), 74.40%.

(Values after patent publication US20140228303A1, “NOVEL SGLT INHIBITORS” (Panacea Biotec Ltd, priority 2011, published 2014).)
